US20180290977A1, “KDM4 INHIBITORS” (Albert-Ludwigs-University Freiburg, priority 2017, published 2018)
Read-outs that look alike come from different tables or passages of the source.

Tests used:
Assay in all cases: KDM demethylase inhibition (IC50)
Type in all cases: biochemical
[1] = molecular target: T1, KDM4C (Homo sapiens, UniProt Q9H3R0)
T1 sequence (Q9H3R0 1-1056): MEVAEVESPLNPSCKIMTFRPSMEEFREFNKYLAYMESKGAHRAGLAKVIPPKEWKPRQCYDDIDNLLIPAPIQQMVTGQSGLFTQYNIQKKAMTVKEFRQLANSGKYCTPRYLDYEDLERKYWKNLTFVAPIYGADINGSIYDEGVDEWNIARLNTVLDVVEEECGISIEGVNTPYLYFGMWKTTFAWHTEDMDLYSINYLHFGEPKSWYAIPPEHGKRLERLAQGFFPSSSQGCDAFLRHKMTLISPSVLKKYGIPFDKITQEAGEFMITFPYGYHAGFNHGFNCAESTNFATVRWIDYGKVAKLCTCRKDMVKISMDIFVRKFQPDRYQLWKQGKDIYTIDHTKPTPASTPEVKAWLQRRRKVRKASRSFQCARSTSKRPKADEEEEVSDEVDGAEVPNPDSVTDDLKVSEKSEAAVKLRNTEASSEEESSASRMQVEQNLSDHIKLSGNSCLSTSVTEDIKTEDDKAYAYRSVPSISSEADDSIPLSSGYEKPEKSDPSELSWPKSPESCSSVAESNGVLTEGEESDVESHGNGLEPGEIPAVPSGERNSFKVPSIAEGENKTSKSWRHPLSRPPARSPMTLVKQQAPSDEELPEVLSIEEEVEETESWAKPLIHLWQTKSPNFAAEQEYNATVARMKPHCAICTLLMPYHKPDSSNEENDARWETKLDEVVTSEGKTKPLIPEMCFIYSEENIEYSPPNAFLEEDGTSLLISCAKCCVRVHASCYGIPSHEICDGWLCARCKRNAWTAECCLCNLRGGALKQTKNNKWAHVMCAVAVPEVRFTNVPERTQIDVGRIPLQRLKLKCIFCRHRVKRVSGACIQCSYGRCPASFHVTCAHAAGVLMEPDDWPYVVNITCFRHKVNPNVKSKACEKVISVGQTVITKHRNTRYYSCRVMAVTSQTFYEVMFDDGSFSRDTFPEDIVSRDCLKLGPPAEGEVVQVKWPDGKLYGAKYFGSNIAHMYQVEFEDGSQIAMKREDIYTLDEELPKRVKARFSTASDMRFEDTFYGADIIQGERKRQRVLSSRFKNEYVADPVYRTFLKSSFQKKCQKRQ

[2] = molecular target: T2, KDM2A (Homo sapiens, UniProt Q9Y2K7)
T2 sequence (Q9Y2K7 1-1162): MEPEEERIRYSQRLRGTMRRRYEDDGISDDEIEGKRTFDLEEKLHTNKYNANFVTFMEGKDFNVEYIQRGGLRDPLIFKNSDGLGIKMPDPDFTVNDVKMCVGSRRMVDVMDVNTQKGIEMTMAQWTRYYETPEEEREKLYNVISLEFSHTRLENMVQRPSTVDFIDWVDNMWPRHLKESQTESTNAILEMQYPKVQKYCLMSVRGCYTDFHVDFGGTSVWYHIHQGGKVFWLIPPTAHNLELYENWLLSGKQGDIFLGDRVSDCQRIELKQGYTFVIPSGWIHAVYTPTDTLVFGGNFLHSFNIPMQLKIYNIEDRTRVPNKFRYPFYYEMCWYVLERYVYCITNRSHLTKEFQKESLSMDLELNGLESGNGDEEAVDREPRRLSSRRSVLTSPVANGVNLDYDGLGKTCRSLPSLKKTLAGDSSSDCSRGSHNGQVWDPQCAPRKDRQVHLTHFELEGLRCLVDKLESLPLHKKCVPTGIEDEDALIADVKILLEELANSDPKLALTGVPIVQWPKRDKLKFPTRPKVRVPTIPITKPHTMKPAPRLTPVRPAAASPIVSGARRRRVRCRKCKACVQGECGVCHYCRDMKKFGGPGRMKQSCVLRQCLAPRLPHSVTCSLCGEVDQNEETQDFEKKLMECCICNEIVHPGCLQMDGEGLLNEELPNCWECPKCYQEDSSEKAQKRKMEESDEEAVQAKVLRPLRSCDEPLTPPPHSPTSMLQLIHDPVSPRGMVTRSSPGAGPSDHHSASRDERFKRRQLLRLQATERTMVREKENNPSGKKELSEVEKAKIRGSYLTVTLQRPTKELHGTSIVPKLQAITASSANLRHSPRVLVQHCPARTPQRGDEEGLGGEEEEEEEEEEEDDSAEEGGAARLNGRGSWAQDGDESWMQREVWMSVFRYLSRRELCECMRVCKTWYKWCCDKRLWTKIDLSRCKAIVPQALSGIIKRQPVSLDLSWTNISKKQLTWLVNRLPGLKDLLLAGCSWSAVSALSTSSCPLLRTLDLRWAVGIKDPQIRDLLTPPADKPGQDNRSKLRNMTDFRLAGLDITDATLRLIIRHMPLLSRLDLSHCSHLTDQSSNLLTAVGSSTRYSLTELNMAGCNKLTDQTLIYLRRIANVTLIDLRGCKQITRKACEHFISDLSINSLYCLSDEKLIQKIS

[3] = molecular target: KDM6B (Homo sapiens, UniProt O15054)
[4] = molecular target: T3, KDM4D (Homo sapiens, UniProt Q6B0I6)
T3 sequence (Q6B0I6 1-523): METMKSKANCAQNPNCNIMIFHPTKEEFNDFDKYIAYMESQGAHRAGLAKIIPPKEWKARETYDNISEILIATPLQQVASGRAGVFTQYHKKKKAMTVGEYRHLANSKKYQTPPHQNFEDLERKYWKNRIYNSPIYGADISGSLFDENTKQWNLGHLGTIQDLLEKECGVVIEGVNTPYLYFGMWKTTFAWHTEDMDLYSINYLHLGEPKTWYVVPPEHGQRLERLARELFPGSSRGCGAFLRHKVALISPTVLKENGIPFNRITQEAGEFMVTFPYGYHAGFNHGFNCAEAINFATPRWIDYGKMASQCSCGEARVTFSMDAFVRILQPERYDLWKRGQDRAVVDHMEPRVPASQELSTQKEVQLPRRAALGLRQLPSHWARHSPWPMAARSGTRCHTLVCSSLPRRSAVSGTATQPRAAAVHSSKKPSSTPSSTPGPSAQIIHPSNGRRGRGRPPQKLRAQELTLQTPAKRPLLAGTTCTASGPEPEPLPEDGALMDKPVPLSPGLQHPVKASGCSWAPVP

[5] = read-out: IC50, demethylase activity

Sequence of KDM6B (O15054 whole entry): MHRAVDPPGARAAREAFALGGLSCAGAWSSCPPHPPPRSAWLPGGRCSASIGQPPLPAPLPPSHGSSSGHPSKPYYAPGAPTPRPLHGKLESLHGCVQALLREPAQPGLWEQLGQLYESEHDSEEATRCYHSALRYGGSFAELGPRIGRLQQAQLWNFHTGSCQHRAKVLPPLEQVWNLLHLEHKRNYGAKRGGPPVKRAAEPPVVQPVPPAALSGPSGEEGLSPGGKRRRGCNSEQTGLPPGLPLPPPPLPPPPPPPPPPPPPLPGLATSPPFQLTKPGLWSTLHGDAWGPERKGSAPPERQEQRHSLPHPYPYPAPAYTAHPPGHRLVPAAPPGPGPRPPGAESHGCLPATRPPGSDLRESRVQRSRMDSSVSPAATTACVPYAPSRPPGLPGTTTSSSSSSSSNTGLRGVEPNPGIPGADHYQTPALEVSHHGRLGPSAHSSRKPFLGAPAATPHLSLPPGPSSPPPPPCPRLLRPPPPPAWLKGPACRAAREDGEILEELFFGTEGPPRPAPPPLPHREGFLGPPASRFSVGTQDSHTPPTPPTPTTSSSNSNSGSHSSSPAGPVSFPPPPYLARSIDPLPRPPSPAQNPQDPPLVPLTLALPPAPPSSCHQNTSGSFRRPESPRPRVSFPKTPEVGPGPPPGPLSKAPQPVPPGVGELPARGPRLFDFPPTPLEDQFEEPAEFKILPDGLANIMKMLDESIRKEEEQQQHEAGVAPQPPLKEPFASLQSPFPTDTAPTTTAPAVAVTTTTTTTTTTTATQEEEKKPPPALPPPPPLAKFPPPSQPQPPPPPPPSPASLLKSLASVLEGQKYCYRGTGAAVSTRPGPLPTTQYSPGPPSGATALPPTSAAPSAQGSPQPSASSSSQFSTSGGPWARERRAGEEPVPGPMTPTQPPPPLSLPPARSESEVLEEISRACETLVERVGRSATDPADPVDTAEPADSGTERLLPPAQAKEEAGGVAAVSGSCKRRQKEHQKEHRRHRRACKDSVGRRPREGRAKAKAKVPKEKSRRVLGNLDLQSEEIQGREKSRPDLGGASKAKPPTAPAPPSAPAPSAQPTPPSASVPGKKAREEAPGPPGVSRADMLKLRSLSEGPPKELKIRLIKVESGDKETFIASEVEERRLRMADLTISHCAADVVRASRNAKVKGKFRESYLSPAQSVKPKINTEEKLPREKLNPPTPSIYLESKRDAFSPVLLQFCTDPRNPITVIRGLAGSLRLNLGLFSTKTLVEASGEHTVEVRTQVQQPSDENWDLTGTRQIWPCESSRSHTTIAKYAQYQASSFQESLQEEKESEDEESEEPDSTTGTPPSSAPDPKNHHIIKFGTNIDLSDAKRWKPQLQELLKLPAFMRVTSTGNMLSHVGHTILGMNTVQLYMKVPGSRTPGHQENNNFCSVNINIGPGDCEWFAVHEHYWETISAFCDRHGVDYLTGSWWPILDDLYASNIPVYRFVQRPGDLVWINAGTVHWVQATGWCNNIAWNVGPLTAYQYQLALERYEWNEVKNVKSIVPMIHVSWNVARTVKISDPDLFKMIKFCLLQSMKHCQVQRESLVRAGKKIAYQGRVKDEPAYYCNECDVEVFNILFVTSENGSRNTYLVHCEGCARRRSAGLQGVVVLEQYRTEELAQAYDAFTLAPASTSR

For `CN(c1ccccc1)c1ccc2c(c1)CCC[C@H]2CNc1cnccc1C(=O)O` [Compound I, 3-({[(1R)-6-[methyl(phenyl)amino]-1,2,3,4-tetrahydronaphthalen-1-yl]methyl}amino)pyridine-4-carboxylic Acid], which IC50 ([1]; read-out: Compound I IC50) is on record?
The IC50 was 35 nM.

What about the IC50 [1, 5] of the same compound?
The IC50 was < 105 nM.

What about the IC50 [2] of the same compound?
The IC50 was > 10000 nM.

What about the IC50 [3] of the same compound?
Its IC50 is > 10000 nM.

And the IC50 ([4]; read-out: Compound I IC50)?
Its IC50 is 104 nM.

What about the IC50 [4, 5] of the same compound?
Its IC50 is < 105 nM.
